Assay results as given in patent US20240270786A1, “STEROID COMPOUNDS” (Epirium Bio Inc., priority 2022, published 2024).
Several values for one entry are separate records, joined by “and”; a condition that tells them apart may be missing. Identical values can stand only once.

Legend:
[1] = system: PGC-1α expression in C2C12 cells; assay: In vitro PGC-1α expression in C2C12 cells (cell ELISA); type: cell-based; conditions: 0.01 nM, 5000 cells/well, OD @ 650 nm, DMSO control = 100
Method: Culture conditions: DMEM containing 25 mM glucose with 10% FBS supplementation; grown at 37° C. and 5% CO2.
Drugs: (+)-Epicatechin, AICAR (direct activator of AMPK).
Assay Conditions: C2C12 cells were cultured in DMEM supplemented in 10% FBS upto 80% confluence. The cells were further trypsinized and seeded into a 96 well plate at a density of 5000 cells/well (well volume—100 μL) (Day 0). Following attachment, the cells were allowed to reach 80-90% confluence in the plate (typically 48 hours post seeding) and further differentiated using DMEM+2% Horse Serum (200 μL/well). The media was changed every day or at least every alternate day for 5 days to allow myoblasts to differentiate into myotubes. On day 7 (post seeding), the cells were treated with standards and test compounds for PGC-1 α assay.
PGC-1α assay: For the detection of PGC-1a, the cells were incubated with 0.5 μg/ml primary antibody (Merck, WH0010891M3) in PBS-T containing 5% BSA at 4° C. overnight. The cells were then washed three times with PBS-T for 5 minutes and incubated with 1:1000 dilution secondary antibody (Anti-rabbit IgG, HRP-linked Antibody, Cell Signaling) in PBS-T with 1% BSA for 1 hour at RT. Cells were washed three times with PBS-T for 5 minutes The cells were incubated with 100 μl TMB substrate solution for 30 minutes and the reaction was stopped with 100 μl of 2N H2SO4. […] (For plate optical density calculations, a background correction was taken at 540 nm). The final PGC-1a activation % is average of activation of 6 replicates.

[2] = system: PGC-1α; assay: In vivo PGC-1α expression in liver of LPS-treated mice (ELISA); set-up: species or system C57BL/6 mice; conditions: LPS 3 mg/Kg IP, test compound 10 mg/kg PO BID, liver, 24 hours post LPS; for PGC-1α levels: C57BL/6 mice; for PGC-1α level (%): Control = 100
Method: C57BL/6 mice were procured from Vivo Bio Tech Ltd. Male mice were used for the study within an age range of 7 to 8 weeks. Body weight for these mice ranged from 20 g to 25 g. Animals were housed in a group of 6 in individually ventilated cages with temperature of 22±3° C., a relative humidity of 50 to 60%. The bottom of the cages was layered with sterilized corn cob. Animals were provided with gamma irradiated feed and autoclaved drinking water ad-libitum. The IVCs were maintained at an environment controlled (Centrally Air-Conditioned) room at a temperature of 22±3° C., a relative humidity of 50 to 60%, light intensity of 250-300 lux and a 12 hour light-dark cycle and noise intensity of <85 db.
Method of Preparation: LPS was dosed at 3 mg/kg in a dose volume of 10 ml/kg. For this, 0.3 mg/ml of LPS solution (Micronized suspension) was prepared. Butter paper was placed on analytical balance, tarred and LPS was placed on butter paper and its weight was noted down. LPS was transferred to 15 ml falcon tube. Then required amount of normal saline was added to it to make it 0.3 mg/ml. The solution was vortexed properly for 5 minutes and placed on ice. LPS solution was vortexed every time before aspiration and injection.
LPS was dosed at 3 mg/kg. Each test compound was dosed at 10 mg/kg, 2 hour and 15 min post LPS administration.
0.5% CMC was used as a vehicle with a dose volume of 10 ml/kg. An IP route was used for LPS, and a PO route was used for each test compound. Animals were sacrified 24 hours post LPS dosing, and plasma were collected. PGC-1α level was measured in liver samples, and other tissues were stored for future analysis. PGC-1α level was checked using ELISA kit—CUSABIO Mouse PPARGC1A ELISA kit.
Protocol: One day before start of the experiment C57BL/6 Mice (Male, 6-7-week-old) were randomized on the basis of their body weight and were divided into groups. All the cages were assigned the respective group name. Animals inside each cage were marked on the base of the tails with permanent marker to distinguish each animal. Mice were fasted overnight. Next day morning animals were dosed with test item. Group 1 (Control) and Group 2 (LPS) Animals were dosed with vehicle (0.5% CMC). Test items were prepared in 0.5% CMC by trituration in mortar and pestle and addition of CMC drop by drop. 2 hour post test item/vehicle dosing animals were administered with LPS through IP route at 3 mg/kg of body weight. Group 1 (Control) animals were administered with saline. 0.25 hour post LPS administration, animals were again dosed with test item/vehicle. Post dosing, animals were returned to their respective cages and kept until termination of the study. No feed was offered to any group. Animals were provided with water. 24 hour post LPS administration, blood was collected from each animal under influence of mild isoflurane anesthesia through retro-orbital technique. Animals were sacrificed by CO2 asphyxiation technique. Post-termination, animals were dissected and vital organs, liver, brain, skeleton muscle were collected in Eppendorf tubes and flash frozen in liquid nitrogen. Serum was collected from whole blood by centrifuging it at 4° C. at 10,000 RPM and for 10 minutes. (Blood was left for 2 hour for coagulation before centrifugation) After completion of the experiment, all collected samples were stored at −80° C. until analysis.
Assay Methods/Protocol: The mortar was chilled with liquid nitrogen and then the small tissue pieces were grinded in the presence of liquid nitrogen to a fine powder. Immediately after grinding, transferred small amount of tissue powder to a 1.5 ml micro centrifuge tube containing 1.0 ml lysis buffer (RIPA buffer+Protease inhibitor). The samples were then incubated on ice for 2 hours. The samples were vortexed every 15 minutes. The samples were then centrifuged at 13000×g for 15 minutes at 2-8° C. After centrifugation the supernatant was removed carefully and pellet was discarded. […]

Row | Structure (SMILES) | % Activity (PGC-1α expression) [1] | PGC-1α levels [2] | PGC-1α level (%) [2]
1 | CN1C(=O)CC[C@@]2(C)C1=CCC1C2[C@@H](O)C[C@@]2(C)C1CC[C@@H]2NC(=O)C1CC1 (stereo partly drawn) [Compound 26, N-((4aR,5S,6aS,7S)-5-hydroxy-1,4a,6a-trimethyl-2-oxo-2,3,4,4a,4b,5,6,6a,7,8,9,9a,9b,10-tetradecahydro-1H-indeno[5,4-f]quinolin-7-yl)cyclopropanecarboxamide] | 129% and 146% | 32298 pg/mL | 84%
2 | CC(C)CCNC(=O)C1CCC2C3CC=C4N(C)C(=O)CC[C@]4(C)C3[C@@H](O)C[C@]12C (stereo partly drawn) [Compound 36, (4aR,5S,6aS)-5-hydroxy-N-isopentyl-1,4a,6a-trimethyl-2-oxo-2,3,4,4a,4b,5,6,6a,7,8,9,9a,9b,10-tetradecahydro-1H-indeno[5,4-f]quinoline-7-carboxamide] | 133% and 130% | 29341 pg/mL | 77%
3 | CNC(=O)[C@H]1CCC2C3CC=C4N(C)C(=O)CC[C@]4(C)C3[C@@H](O)C[C@@]21C (stereo partly drawn) [Compound 40, (4aR,5S,6aS)-5-hydroxy-N,1,4a,6a-tetramethyl-2-oxo-2,3,4,4a,4b,5,6,6a,7,8,9,9a,9b,10-tetradecahydro-1H-indeno[5,4-f] quinoline-7-carboxamide] | 130% and 143% | 39014 pg/mL and 22668 pg/mL | 73% and 75%
